# Results from US20250025440A1, “COMPOSITIONS AND METHODS FOR MANAGEMENT OF HUMAN PAPILLOMA VIRUS-ASSOCIATED CANCERS” (LOMA LINDA UNIVERSITY, priority 2021, published 2025).
# Entries after “also recorded” stand apart in the source; their conditions may differ.
# Assays:
# [1] = target: T1, full-length HPV E6 binding to human Caspase 8 (Human papillomavirus type 16, UniProt P03126); conditions: SAR analogs
# T1 construct: made in house; host or cells: E. coli
# Method: Three structurally diverse libraries (Prestwick library, Microsource Spectrum library and an in-house collection at Kansas University; see Table 1) were screened for the ability of compounds to inhibit the binding of full-length HPV E6 to human Caspase 8 using a previously optimized AlphaScreen™ protocol.
# The compounds were diluted to a working concentration in DMSO and screened at a single-point final concentration of 10 μM with no replicates. Briefly, 75 nL of each compound was transferred and added to wells of the destination 384-well plate using the Echo dispenser to 4 μL of blocking solution. 4 μL of 800 nM GST-E6 and 4 μL of His6-Caspase 8 were added and pre-incubated at room temperature for 60 minutes. 8 μL of the donor and acceptor bead mixture (final concentration of 20 μg/ml) was then added. The plates were sealed and incubated for 4 hours at room temperature before the plates were read using the Envision™ Multi-Label plate reader (Perkin Elmer Inc.). […] A 10-point serial dilution of these compounds was done for dose-dependency reconfirmation. Dose response inhibition curves were constructed and IC50 calculated using GraphPad Prism using four parameter non-linear regression analysis.
# The first counter-screen assay was based using the GST-His6 fusion peptide as the E6-binding partner instead of GST-E6-His6-Caspase 8. Hit candidate compounds from the primary screen were prepared using a 6-point serial dilution. Using an Echo dispenser, compounds were transferred to plates containing 4 μL of blocking buffer. 8 μL of 5 nM GST-His6 peptide substrate was then added. The mixture was pre-incubated at room temperature for 60 minutes. Glutathione donor and nickel chelate acceptor beads (final concentration 20 μg/mL) were added and incubated for another 60 minutes at room temperature. Dose-dependency of the compounds using GST-E6-His6-Caspase 8 was performed in parallel using the same protocol as in the primary screen. The signals were then read using the Envision™ plate reader.
# Using the SciFinder and Zinc15 databases, several gambogic acid structural analogs were identified and selected. The 8 analogs were obtained as follow: gambogenic amide (Enzo Life Sciences), gambogenic acid (Selleckchem), morellic acid (Aobious), 30-hydroxy gambogic acid (Quality Phytochemicals, LLC), acetyl gambogic acid (Microsource), and gambogin, neogambogic acid and isomorellinol (MolPort Natural Products). Additional gambogic acid was purchased from Tocris. The interactions of the analogues with E6-caspase 8 was tested using AlphaScreen™ technology using the same protocol as with the primary screen, and were compared to the parent compound. The effect on cell viability was also similarly done in HPV^+ and HPV^− cell lines via the MTT assay (see below) and potency was determined using GraphPad IC50 curve fitting.
# [2] = tested on: HPV- (SCC19, SCC29) and HPV+ (SCC47, SCC104, SCC152) HNSCC cell lines; test: Sensitization of HNSCC cell lines to photon radiation; assay type: cell-based; conditions: radiation 0-4Gy followed by inhibitor; DER10
# Method: The dose enhancement ratio for 10% survival (DER10) was calculated as follows: DER10=(Dose correlated with 10% survival fraction in radiation-treated cells)/(Dose correlated with 10% survival fraction in radiation and inhibitor treated cells).
# CCDP, Cetuximab, and GA-OH were evaluated for their ability to sensitize HNSCC cell lines to photon radiation.
# Colonies were counted after 14-21 days and normalized to vehicle control and survival analysis was performed.
# Sensitization of an additional HPV^+ cell line to radiation by CDDP, Cetuximab and GA-OH was evaluated.
# [3] = tested on: SCC47 and SCC19; test: Apoptosis analysis after irradiation (flow cytometry); assay type: cell-based
# Method: Kinetics of G2-M arrest when SCC47 and SCC19 are irradiated with or without GA-OH. Cells were treated with radiation (4Gy) followed by GA-OH before cell cycle analysis was performed using […] flow cytometry assay after 24 hours. FIGS. 17A-17B are graphical representations of the kinetics of G2-M arrest when SCC47 and SCC19 are irradiated and followed by treatment with control or with GA-OH, as measured by flow cytometry assays after 24 hours. Cells are arrested to the same extent in the short term (first 12 hours) but over extended periods, SCC19 cells exit the G2-M stage quicker. In the HPV^+ but not HPV^− line, the addition of GA-OH to the radiation protocol delays the exit from the exit the G2-M stage at 24 hours as compared to radiation alone. Apoptosis analysis of SCC47 and SCC19 was performed after irradiation and followed by treatment with control or with GA-OH, as measured by flow cytometry assays after 24 hours. FIGS. 18A-18B are graphical representations of the apoptotic analysis of SCC47 and SCC19 after irradiation with or without GA-OH after 24 hours, as measured by flow cytometry assays. Radiation induces minimal apoptosis on its own.
# T1 sequence (P03126 whole entry): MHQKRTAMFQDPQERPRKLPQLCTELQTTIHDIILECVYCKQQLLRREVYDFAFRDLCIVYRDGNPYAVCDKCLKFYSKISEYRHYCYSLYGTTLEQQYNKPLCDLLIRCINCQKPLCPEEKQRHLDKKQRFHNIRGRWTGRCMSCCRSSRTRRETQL
substance,measurement,setting,value
30-hydroxygambogic acid [GA-OH],inhibition of E6-caspase 8 binding relative to GA,[1],more effectively inhibited E6 binding to caspase 8 than any of the other analogs or the parent compound
same,sensitization to photon radiation,[2],most sensitization in HPV+ cell lines; also recorded: less than that of CDDP but greater than cetuximab
same,"apoptosis, agent alone",[3]; 24 hours,appreciable apoptosis
same,"apoptosis, combination with radiation","[3]; SCC47 compared to SCC19, 24 hours",greater apoptosis and at a greater rate
